Our source for the MIC values is PubChem BioAssay AID2695 (Broad Institute, 2010).

Values after ≈ are worked out from the molar mass of the structure shown. Results filed as inconclusive are left out. Active and inactive are the calls of the source.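 How the source made its calls: active means a dose response, with MIC, the lowest growth-blocking dose, below the top tested dose; inconclusive means replicates split around the top dose, or self-fluorescent without titration; inactive means MIC above the top tested dose.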

The test system of this experiment is C. albicans SC5314 growth, alamar blue fluorescence. Put plainly: C. albicans growth inhibition, dose response, SC5314, Alamar Blue fluorescence (AID 2695). The settings on record: 6.5 h.
Regarding `Cc1ccc(Nc2c(-c3ccc(C)o3)nc3ncccn23)cc1`, the MIC was > 33 µM (inactive).
Then `Nc1ncnc2c1ncn2C1OC(CO)CC1O` (stereo unspecified), with > 33 µM (inactive); and `Cc1ccc2nc(/C(C#N)=C/c3ccc([N+](=O)[O-])o3)[nH]c2c1`, with 2.1 µM (≈ 0.618 µg/mL).
Then `CCOc1cc(/C=C2\N=C(SC(C)C(N)=O)N(c3ccc(OC(F)F)cc3)C2=O)ccc1O` (stereo unspecified), with > 33 µM (inactive).
Then `Cc1ccc(C(=O)c2no[n+]([O-])c2C(=O)c2ccc(C)cc2)cc1`, with 16.6 µM (≈ 5.35 µg/mL); and `N#C/C(=C/c1ccc([N+](=O)[O-])o1)c1nc2ccccc2[nH]1`, with 4.1 µM (≈ 1.15 µg/mL).
Consider `N#CC1(C#N)C2=C(CCCC2)NC(c2ccccc2)C1(C#N)C#N` (stereo unspecified), for which the MIC is > 33 µM (inactive).
To `O=C(Oc1c(-c2ccccc2)c(=O)n2c3c(cccc13)CC2)c1cccc([N+](=O)[O-])c1` belongs > 33 µM (inactive); to `COc1cc(/C=C2\SC(=S)N(NC(=O)c3cccnc3)C2=O)ccc1O`, > 33 µM (inactive); to `COc1cc(/C=C2/SC(=S)N(Cc3ccccc3)C2=O)cc(OC)c1O`, 17.5 µM (≈ 6.78 µg/mL).
To `COc1cc(/C=C2/CC/C(=C/c3ccc(O)c(OC)c3)C2=O)ccc1O` belongs > 33 µM (inactive); to `O=C(COC(=O)Cc1ccc(S(=O)(=O)N2CCOCC2)s1)NCc1ccc(Cl)cc1`, > 33 µM (inactive); to `CC(=O)c1ccc(Sc2ccccc2)c([N+](=O)[O-])c1`, 16.6 µM (≈ 4.54 µg/mL).
Then `Cc1ccc(-c2nn3c(C)nnc3s2)cc1NC(=O)CSc1ccc(Cl)cc1`, with > 33 µM (inactive).
Regarding `COc1cc(/C=C2\SC(=S)N(NC(=O)c3ccncc3)C2=O)ccc1O`, the MIC is > 33 µM (inactive).
Then `O=C(O)CN1C(=O)/C(=C\c2ccc(N3CCCCC3)o2)SC1=S`, with > 33 µM (inactive).
